Values quoted from earlier work, collected in patent US20120108678A1, “BRANCHED COPOLYMERS, COMPOSITIONS AND USES” (UNILEVER PLC, priority 2009, published 2012).

Q: Which water solubility (water-insoluble monomer examples) does the source give for C=Cc1ccccc1 [styrene] here?
A: 0.02 % w/w

Q: With C=CC(=O)OCCO [2-Hydroxyethyl acrylate] as the molecule, how does the “Solubility in water w/w at 20° C.” value read?
A: soluble

Q: For C=CC(=O)OCC(C)O (centres unmarked) [2-Hydroxypropyl acrylate], which “Solubility in water w/w at 20° C.” value is on record?
A: Soluble

Q: With C=C(C)C(=O)O [Methacrylic acid] as the molecule, how does the “Solubility in water w/w at 20° C.” value read?
A: Soluble

Q: With C=C(C)C(=O)OCCO [2-Hydroxyethyl methacrylate] as the molecule, how does the “Solubility in water w/w at 20° C.” value read?
A: 3.00 w/w
